11 molecules from ChEMBL document CHEMBL1201862, “PubChem BioAssay data set” (2004) can be followed below.

What all share (assay): NCI-60 cell line screen, 48 h
The subject of assay [1] is A549.
Assay [2] relates to CCRF-CEM.
The test system of assay [3] is COLO 205.
Assay [4] relates to HCT-15.
For assay [5], the system named is HL-60.
The subject of assay [6] is HOP-92.
Assay [7] has as its system HT-29.
The subject of assay [8] is IGROV-1.
Assay [9] deals with LOX IMVI.
For assay [10], the system named is MOLT-4.
In assay [11] the test system is Malme-3M.
Assay [12] relates to NCI-H23.
The test system of assay [13] is OVCAR-3.
Assay [14] relates to OVCAR-8.
The test system of assay [15] is SF-268.
Assay [16] has as its system SK-MEL-28.
Assay [17] relates to SN12C.
Assay [18] concerns UACC-62.
Assay [19] deals with CAKI-1.
Assay [20] has as its system M14.

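Test compounds were applied to cells in 96-well plates for 48 hours at 5 doses. GI50 marks 50% less growth.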 The source made the active and inactive calls. Rule as the data show it: active = GI50 up to about 1.1 µM and inactive = higher.

Take `CSc1nc2c(ncn2C2OCC(O)C(O)C2O)c(=O)[nH]1` (stereo not drawn): the GI50 in assay [1] was > 100 µM (inactive); in [2], > 100 µM (inactive); in [3] it was > 100 µM (inactive); in [4], more than 100 µM; in assay [5], > 100 µM (inactive); in [6], > 100 µM (inactive). The GI50 in assay [7], in assay [8], in assay [9], in [10], in assay [11] and in assay [12] was > 100 µM (inactive) throughout. Moreover, the GI50 in assay [13], in assay [14], in assay [15], in [16], in assay [17] and in assay [18] was > 100 µM (inactive) throughout.
As for `CN(C(=O)c1ccccc1)c1ccc2c(c1)C(=O)c1ccccc1C2=O`, the GI50 in [19] is > 100 µM (inactive); in assay [2], > 100 µM (inactive); in assay [3] it was > 100 µM (inactive); in assay [4] it was more than 100 µM; in assay [6], > 100 µM (inactive); in assay [7], > 100 µM (inactive). Further, the GI50 in assay [8], in assay [9], in assay [20], in assay [10], in assay [11] and in assay [12] was > 100 µM (inactive) throughout. The GI50 in assay [13], in assay [14], in assay [15], in assay [16], in assay [17] and in [18] was > 100 µM (inactive) each time.
With `Cc1ccc(NP(=O)(Oc2ccccc2)N(CCCl)CCCl)cc1` (stereo not drawn), the GI50 in assay [1] is 48.2 µM (inactive); in assay [19], > 100 µM (inactive); in assay [3] it was 31.6 µM (inactive); in assay [4], 45.2 µM; in assay [5], 44 µM (inactive); in [6] it was 96.4 µM (inactive). For the same molecule, the GI50 in assay [7] was 26.1 µM (inactive); in assay [8], 90.8 µM (inactive); in [20], > 100 µM (inactive); in [10] it was 9.04 µM (inactive); in assay [11] it was 92.7 µM (inactive); in assay [12], 61.5 µM (inactive). The GI50 in assay [13] was 54.6 µM (inactive); in assay [14], 99.1 µM (inactive); in assay [15], 80.5 µM (inactive); in assay [16], > 100 µM (inactive); in assay [17], 91 µM (inactive); in [18], > 100 µM (inactive).
Turning to `O=C(O)/C=C/c1nc2ccccc2c(=O)o1`, the GI50 in assay [1] is > 100 µM (inactive); in [2] it was 77.3 µM (inactive); in [3], > 100 µM (inactive); in assay [4] it was more than 100 µM; in [5], > 100 µM (inactive); in [6], > 100 µM (inactive). For the same molecule, the GI50 in [7], in assay [8], in assay [9], in assay [20], in assay [10] and in assay [12] was > 100 µM (inactive) in each case. Also, the GI50 in assay [13], in assay [14], in [16], in assay [17] and in [18] was > 100 µM (inactive) each time.
In the case of `COc1cc(C2C(Cl)C(=O)N2NC(=O)c2ccccc2O)ccc1O` (stereo not drawn), the GI50 in [1] is > 100 µM (inactive); in assay [2] it was > 100 µM (inactive); in [4], more than 100 µM; in assay [5] it was > 100 µM (inactive); in [7], > 100 µM (inactive); in assay [8] it was > 100 µM (inactive). Besides, the GI50 in assay [9], in assay [20], in assay [10], in assay [11], in assay [12] and in assay [13] was > 100 µM (inactive) in each case. Moreover, the GI50 is 70.8 µM (inactive) in [14]; > 100 µM (inactive) in assay [15]; > 100 µM (inactive) in assay [16]; > 100 µM (inactive) in assay [17]; > 100 µM (inactive) in assay [18].
Turning to `O=c1c2c(nc3[nH]ccn13)CCCC2`, the GI50 is > 10 µM (inactive) in assay [1]; > 10 µM (inactive) in [19]; > 10 µM (inactive) in assay [2]; > 10 µM (inactive) in assay [3]; more than 10 µM in [4]; > 10 µM (inactive) in assay [5]. Further, the GI50 in assay [7], in assay [8], in assay [9], in assay [20], in assay [10] and in [11] was > 10 µM (inactive) in each case. The GI50 in [12], in assay [13], in assay [14], in assay [15], in [16] and in [17] was > 10 µM (inactive) each time. Also, the GI50 in assay [18] is > 10 µM (inactive).
For the molecule `COc1cc(CNc2nc3cc(C(F)(F)F)ccc3nc2-c2ccccc2)cc(OC)c1OC`, the GI50 in assay [1] was 37.3 µM (inactive); in assay [19], 39.4 µM (inactive); in assay [2], 24.9 µM (inactive); in [3], 17.1 µM (inactive); in assay [4], 17.3 µM; in [5], 18.5 µM (inactive). Moreover, the GI50 is 23.7 µM (inactive) in assay [7]; 25.9 µM (inactive) in [8]; 28.6 µM (inactive) in assay [9]; 30.5 µM (inactive) in assay [20]; 12.9 µM (inactive) in assay [10]; 21.3 µM (inactive) in [11]. Besides, the GI50 in assay [12] was 21 µM (inactive); in [13], 24.6 µM (inactive); in assay [14] it was 33.2 µM (inactive); in [15] it was 40.6 µM (inactive); in assay [16], 49.7 µM (inactive); in assay [17] it was 24.3 µM (inactive). Further, the GI50 in assay [18] is 8.53 µM (inactive).
As to `Cc1cc(C)c(S(=O)(=O)N(CCCCCN)OCCCN)c(C)c1`, the GI50 in [1] was 19 µM (inactive); in assay [19] it was 17.4 µM (inactive); in assay [2] it was 20.7 µM (inactive); in [3] it was 20.2 µM (inactive); in [6] it was 15.9 µM (inactive); in assay [7], 14.1 µM (inactive). The GI50 in [8] was 13.9 µM (inactive); in [9], 17.7 µM (inactive); in assay [20] it was 18.3 µM (inactive); in assay [10] it was 14.4 µM (inactive); in [11] it was 23.4 µM (inactive); in assay [12], 18.3 µM (inactive). Also, the GI50 in assay [13] was 17.5 µM (inactive); in assay [14] it was 18.8 µM (inactive); in assay [15], 20.3 µM (inactive); in [16], 16.9 µM (inactive); in assay [17], 18.1 µM (inactive); in assay [18], 17.7 µM (inactive).
For `COc1ccc(N2C(Cl)C(=O)C2c2c[nH]c3ccccc23)cc1` (stereo not drawn), the GI50 in [1] was > 100 µM (inactive); in [2], > 100 µM (inactive); in assay [3] it was > 100 µM (inactive); in [5], > 100 µM (inactive); in assay [6], 28.3 µM (inactive); in assay [7], > 100 µM (inactive). Also, the GI50 was > 100 µM (inactive) in assay [8]; > 100 µM (inactive) in [20]; > 100 µM (inactive) in assay [10]; 72.6 µM (inactive) in assay [11]; > 100 µM (inactive) in assay [12]; > 100 µM (inactive) in assay [13]. Moreover, the GI50 in assay [14], in assay [15], in assay [16], in assay [17] and in assay [18] was > 100 µM (inactive) throughout.
As to `CC1(C(=O)O)CCC(C(=O)O)C(C)(C)O1` (stereo not drawn), the GI50 in assay [1], in assay [19], in assay [2], in assay [3], in assay [6] and in assay [7] was > 100 µM (inactive) each time. The GI50 in assay [8], in assay [9], in [20], in assay [10], in assay [11] and in assay [12] was > 100 µM (inactive) throughout. The GI50 in [13] was 29.2 µM (inactive); in assay [14] it was > 100 µM (inactive); in assay [15], > 100 µM (inactive); in [16], > 100 µM (inactive); in assay [17], > 100 µM (inactive); in [18], > 100 µM (inactive).
Regarding `CC(=O)c1c(-c2ccco2)c(C#N)c(=S)n(C2OC(CO)C(O)C(O)C2O)c1C` (stereo not drawn), the GI50 in assay [1] was > 100 µM (inactive); in assay [19] it was > 100 µM (inactive); in assay [2] it was 83.9 µM (inactive); in assay [3] it was > 100 µM (inactive); in assay [4] it was more than 100 µM; in assay [5], 50.9 µM (inactive). Besides, the GI50 in [7] is > 100 µM (inactive); in [8], > 100 µM (inactive); in assay [9], 56.6 µM (inactive); in assay [20], 72.9 µM (inactive); in [10], 47.2 µM (inactive); in assay [11], > 100 µM (inactive). For the same molecule, the GI50 is > 100 µM (inactive) in assay [12]; > 100 µM (inactive) in assay [13]; > 100 µM (inactive) in [14]; > 100 µM (inactive) in [15]; 87.7 µM (inactive) in [16]; 71.3 µM (inactive) in assay [17]. The GI50 in [18] is 78.9 µM (inactive).
